Marks after values point to notes of the source that are not given here.
How the values were obtained:
[1] = test system: HCT-116 colon cancer xenografts; assay: Tumor growth inhibition of HCT-116 colon cancer xenografts in tumor-bearing nude mice (tumor volume, TGI %, RTV, T/C %); format: in vivo, Balb/c Nude mice
Procedure: 4.1 Tumor cells: colon cancer HCT-116 cells, purchased from the Institute of Cell Biology, Chinese Academy of Sciences. The cells were incubated by F-12 medium (containing 10% FBS) in carbon dioxide incubator at 37° C. and in saturated humidity, with 5% CO2 and 95% air in volume fraction. Before inoculation, the cells at logarithmic phase were taken, and digested with 0.25% trypsin, washed once with PBS and resuspended in PBS for counting. The cells were resuspended in serum-free medium and adjusted to about 3×10^7 cell/mL.
The grouping is as follows:
The formations of tumor at the inoculation site of each group of nude mice were observed. The diameter of tumor nodule (D) was measured three times a week with round hole ruler, and the volume of tumor nodule (V) was calculated according to the following formula: […].
Anti-tumor activity was evaluated by tumor growth inhibition rate TGI (%) and relative tumor proliferation rate T/C (%).
The relative tumor volume (RTV) was calculated as: RTV=Vt/V0, where V0 was the tumor volume when they were grouped and administered, and Vt was the tumor volume at the time of measurement.
The relative proliferation rate T/C (%) was calculated as: […].
TRTV: RTV of the treatment group; CRTV: RTV of the control group.
P<0.05 was considered as significant difference.

[2] = Procedure: To determine the growth inhibition effect and toxicity of the cytidine derivative samples of the present invention on the transplanted tumor of nude mice bearing colon cancer HCT-116.
(§1) The corresponding amount of test substance was taken in a 5 mL glass tube and dissolved in ethanol with a 5 mm magnetic stirrer for stirring. After dissolving completely, Cremophor EL was added with continuous stirring. The marked amount of saline was added and mixed evenly before use. The volume ratio of ethanol, Cremophor EL, and physiological saline was 5:5:90.
Varieties and lines; Balb/c Nude mice; level: SPF; sex: female.
4.2 Animal inoculation and grouping: Each nude mouse was inoculated subcutaneously with 0.1 mL of cell suspension (3×10^6 cell/mouse) at right side of hind limb in a sterile stale. When the tumor grew to about 60-150 mm^3, the nude mice with similar tumor volume and desirable shape were selected (it would be better to select single spherical shape, no irregular shape or multiple tumors grouped together) for grouping, 6 mice a group. The grouping is as follows:
The control group, namely the model control group, was injected with a mixture of ethanol, Cremophor EL, and saline (5:5:90).
Those mice were weighed three times a week.
All clinical symptoms of each animal should be recorded at the beginning of the test and during the test. The observations should be made at the same time each day.
An animal would be killed by CO2 when its weight loss was more than 20%, when it was about to die, or when its tumor volume exceeded 2800 mm^3. The tumor was separated and weighed, and the animal was autopsied and observed to evaluate and record whether there were pathological changes in the organs.
The data were expressed as Mean±SEM unless specially provided; Non-pairing T test was performed for the data between the two groups. P<0.05 was considered as significant difference.

ICR mice = assay: in vivo; details: female ICR mice; single-dose ip
Procedure: This experiment was to investigate the toxic effects of single-dose intraperitoneal administration on ICR mice and determine the maximum tolerated dose (MTD) of each subject. Maximum tolerated dose (MTD) refers to the dose that may not cause an animal to die, may not cause the animal to suffer weight loss exceeding 10% (compared with Day 0), or may not produce significant side effects.
as §1
Varieties and lines: ICR mice; level: SPF; sex: female.
Method of administration: ip. The dose was reduced in case of animal death, till an animal survived; the dose was increased in case of no animal death; the test was ended when the animals survived normally at the given high dose. Finally, the MTD of the mice on the test substances was determined according to the test results. The animals were observed continuously for 7 days after acute administration.
During the experiment, all animals were under detailed and continuous clinical observation for […], twice a day (10:00 am, 16:00 pm) after administration. The observation included but not limited to: skin, hair, ear, nose, mouth, chest, abdomen, external genitalia, limbs and feet, respiratory and circulatory system, autonomic effects (such as salivation), nervous system (such as tremor, convulsions, stress response and abnormal behavior).
The body of animals was weighed before administration, and then weighed and recorded at the same time each day.
The observation results, animal body weight, and animal survival after one week of administration were recorded in detail every day.

[3] = Day 0, G3-G9 groups, single IP dose, Mean±SEM
[4] = Day 4, G3-G9 groups, single IP dose, Mean±SEM
[5] = Day 6, G3-G9 groups, single IP dose, Mean±SEM
[6] = Day 8, G3-G9 groups, single IP dose, Mean±SEM
[7] = Day 11, G3-G9 groups, single IP dose, Mean±SEM
[8] = Day 13, G3-G9 groups, single IP dose, Mean±SEM
[9] = Day 15, G3-G9 groups, single IP dose, Mean±SEM
[10] = Day 18, G3-G9 groups, single IP dose, Mean±SEM
[11] = Day 20, G3-G9 groups, single IP dose, Mean±SEM
[12] = Day 22, G3-G9 groups, single IP dose, Mean±SEM

## O=C(Nc1ccn([C@@H]2O[C@H](CO)[C@@H](O)C2(F)F)c(=O)n1)OCc1ccccc1 [Compound G4, 4-N-(carboxybenzyl)-2′-deoxy-2′,2′-difluorocytidine]
[1]; [3]
  Day 0 (RTV): 1.00 ± 0.00
  Tumor volume, Day 0: 63.44 ± 18.74** mm^3
[1]; Day 4, G3-G9 groups, single IP dose
  Day 4 (TGI %): 83.29%
[1]; [4]
  Day 4 (RTV): 0.70 ± 0.13
  Tumor volume, Day 4: 44.53 ± 13.75** mm^3
[1]; Day 6, G3-G9 groups, single IP dose
  Day 6 (TGI %): 89.82%
[1]; [5]
  Day 6 (RTV): 0.68 ± 0.10
  Tumor volume, Day 6: 43.04 ± 10.69** mm^3
[1]; Day 8, G3-G9 groups, single IP dose
  Day 8 (TGI %): 91.66%
[1]; [6]
  Day 8 (RTV): 0.69 ± 0.13
  Tumor volume, Day 8: 43.83 ± 12.73** mm^3
[1]; Day 8 to Day 13 after single-dose intraperitoneal administration
  tumor inhibition effect: good tumor inhibition effect
[1]; Day 11, G3-G9 groups, single IP dose
  Day 11 (TGI %): 92.58%
[1]; [7]
  Day 11 (RTV): 1.12 ± 0.29
  Tumor volume, Day 11: 59.68 ± 11.72** mm^3
[1]; Day 13, G3-G9 groups, single IP dose
  Day 13 (TGI %): 92.57%
[1]; [8]
  Day 13 (RTV): 1.51 ± 0.39
  Tumor volume, Day 13: 86.22 ± 24.86** mm^3
[1]; Day 15, G3-G9 groups, single IP dose
  Day 15 (TGI %): 90.04%
[1]; [9]
  Day 15 (RTV): 2.80 ± 0.97
  Tumor volume, Day 15: 140.70 ± 34.22** mm^3
[1]; Day 18, G3-G9 groups, single IP dose
  Day 18 (TGI %): 85.93%
[1]; [10]
  Day 18 (RTV): 5.36 ± 1.82
  Tumor volume, Day 18: 260.52 ± 51.15** mm^3
[1]; Day 20, G3-G9 groups, single IP dose
  Day 20 (TGI %): 78.95%
[1]; [11]
  Day 20 (RTV): 9.65 ± 3.23
  Tumor volume, Day 20: 446.16 ± 65.85** mm^3
[1]; Day 22, G3-G9 groups, single IP dose
  Day 22 (TGI %): 75.68%
[1]; [12]
  Day 22 (RTV): 14.66 ± 5.30
  Tumor volume, Day 22: 636.07 ± 78.89** mm^3
[1]; Day 22, G4 350 mg/kg, G5 325 mg/kg, G7 250 mg/kg, single IP
  T/C % on Day 22: 75.38%
[1]; G4 and G5 Day 4 to Day 18, G7 Day 4 to Day 15 (p<0.05-0.01), G9 only Day 4 (p<0.05)
  relative tumor volume compared with the model control group: reduced significantly
[1]; day of maximum: G3 Day 8, G4 Day 11, G5 Day 11, G9 Day 4, G7 Day 8, single IP
  maximum value of TGI %: 92.58%
[1]; day of minimum: G4 Day 13, G5 Day 11, G7 Day 8, single IP
  minimum value of T/C %: 17.62%
[2]; [3]
  Weight change rate, Day 0: 0.00 ± 0.00%
  Weight of mice, Day 0: 20.20 ± 0.55 g
[2]; Day 4 (G7: Day 4 and Day 6), p<0.05
  weights of animals on Day 4 after administration: significantly reduced
[2]; [4]
  Weight change rate, Day 4: −10.91 ± 3.45 %
  Weight of mice, Day 4: 18.22 ± 1.19 g
[2]; Day 4, G4 350 mg/kg, G5 325 mg/kg, G7 250 mg/kg, single IP
  weight loss rate on Day 4 after administration: 10.91±3.45%
[2]; Day 4, G4 350 mg/kg, G8 350 mg/kg, G6 300 mg/kg, single IP, 6 mice a group
  animals died on Day 4 after administration: 1
[2]; [5]
  Weight change rate, Day 6: −1.87 ± 2.96%
  Weight of mice, Day 6: 20.06 ± 1.18 g
[2]; [6]
  Weight change rate, Day 8: 0.30 ± 1.84%
  Weight of mice, Day 8: 20.48 ± 0.97 g
[2]; [7]
  Weight change rate, Day 11: 3.85 ± 5.08%
  Weight of mice, Day 11: 21.08 ± 0.76 g
[2]; [8]
  Weight change rate, Day 13: 7.64 ± 4.55%
  Weight of mice, Day 13: 21.86 ± 0.67 g
[2]; [9]
  Weight change rate, Day 15: 8.84 ± 4.33%
  Weight of mice, Day 15: 22.10 ± 0.57 g
[2]; [10]
  Weight change rate, Day 18: 9.28 ± 3.53 %
  Weight of mice, Day 18: 22.20 ± 0.43 g
[2]; [11]
  Weight change rate, Day 20: 10.50 ± 4.03 %
  Weight of mice, Day 20: 22.44 ± 0.49 g
[2]; [12]
  Weight change rate, Day 22: 11.39 ± 4.05%
  Weight of mice, Day 22: 22.62 ± 0.49 g
[2]; Day 22, single IP dose (mg/kg)
  Day 22 Mortality: 17%
[2]; G4 Day 18 to Day 20 (p<0.05), G5 Day 13 to Day 20 (p<0.05~0.01)
  body weight compared with model control group: significantly increased
[2]; after single IP dose, compared with model control group
  clinical symptoms: 3 animals had less activity, loss of body weight, and body surface temperature lower than normal
ICR mice
  dose that could be tolerated (maximum tolerated dose, MTD): 350 mg/kg

— patent US10174067B2, “Type of cytidine derivative and application thereof” (priority 2014, dated 2019)
